What was measured:
[1] = tested on: R-FSL-1 (TLR2 agonist)-induced NO production in RAW macrophage cell line; test: Nitric oxide (NO) production induced by TLR2 agonist R-FSL-1 in RAW macrophage cell line; format: cell-based, murine; conditions: RAW macrophages; for suppression of NO production compared with positive control MPE-001 at the same concentration / suppression of R-FSL-1-mediated NO production at 10^−7 M: 10^−7 M, FIG. 4F; for suppression of R-FSL-1-mediated NO production at 10^−7 M: further analyses; for R-FSL-1-mediated NO production, % of control: control = R-FSL-1 only, noticeable reduction without reaching significance (P<0.01)
Protocol: The murine RAW1 macrophage cell line was obtained from American Type Cell Collection (ATCC #TIB-71), seeded at 1.5×10^5 cells/well in Dulbecco's Modified Eagle's medium (DMEM) containing 100 U/mL of penicillin (Pen) and 100 μg/mL of streptomycin (Strep) on a 48-well plate (Costar® #3548), and incubated at 37° C. with 5% CO2. After 2 h, the cell culture medium of adhered cells was removed and replaced by DMEM-Pen/Strep medium containing 0.2% of bovine serum albumin (BSA), and supplemented with the cyclic peptides at a concentration of 10^−6 or 10^−7 M. MPE-001 (DBG178, His-D-Trp-Ala-AzaTyr-D-Phe-Lys-NH2) and [azaLys^6]-GHRP-6 (His-D-Trp-Ala-Trp-D-Phe-azaLys-NH2, negative control) at 10^−6 M were used as positive and negative controls, respectively. After 1 h pre-incubation, the cells were stimulated overnight using the TLR2 ligand fibroblast-stimulating lipopeptide (R-FSL-1) (Invivogen® #L7022) at a concentration of 300 ng/mL. Supernatants were then collected for nitrite production analysis by fluorescence using 2,3-diaminonaphthalene (DAN). Briefly, 25 μL of sample was incubated with 0.5 μg of DAN in a 100 μL final volume of phosphate buffer (50 mM, pH 7.5) at room temperature in the dark. After 15 min, the reaction was stopped with 20 μL of NaOH (2.8N) and the plate was read using a fluorescence plate reader (TECAN® Safire, λexc 365 nm and λem 430 nm).

CD36 = molecular target: T1, CD36 (Rattus norvegicus, UniProt Q07969); test: Competition binding of photoactivatable [125I]-Tyr-Bpa-Ala-Hexarelin to CD36 in rat cardiac membranes; conditions: competition with [125I]-Tyr-Bpa-Ala-Hexarelin, rat heart membranes; read-out: IC50 (μM), binding affinity for CD36
T1 construct: from tissue; host or cells: Heart (cardiac membranes) of Sprague Dawley rats from Charles River
T1 sequence (Q07969 whole entry): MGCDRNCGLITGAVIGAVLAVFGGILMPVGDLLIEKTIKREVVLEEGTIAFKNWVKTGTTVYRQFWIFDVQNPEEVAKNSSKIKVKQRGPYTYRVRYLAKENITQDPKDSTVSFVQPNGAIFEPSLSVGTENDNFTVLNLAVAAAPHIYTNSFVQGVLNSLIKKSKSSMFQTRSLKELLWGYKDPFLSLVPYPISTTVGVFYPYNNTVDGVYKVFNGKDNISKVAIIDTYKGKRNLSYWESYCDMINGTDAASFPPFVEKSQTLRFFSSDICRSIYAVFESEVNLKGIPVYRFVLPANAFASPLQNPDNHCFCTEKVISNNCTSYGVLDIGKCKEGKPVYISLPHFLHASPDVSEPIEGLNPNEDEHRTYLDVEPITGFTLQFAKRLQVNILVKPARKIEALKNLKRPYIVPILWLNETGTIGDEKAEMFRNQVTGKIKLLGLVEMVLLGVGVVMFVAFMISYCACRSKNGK
Protocol: Hearts from Sprague Dawley rats (300-325 g) from Charles River were cut into small pieces and homogenized with a Polytron® at low speed, 3×15 sec in buffer A (10 mM NaHCO3, 5 mM NaN3, 10 μM Pefabloc®, 0.1 μM Aprotinin, 1 μM Pepstatin A, 1 μM Leupeptin, pH 7.0) at a concentration of […] of tissue. The homogenate was first centrifuged at 8,700×g for 20 min in a Sorvall® centrifuge and the supernatant was collected on ice. The pellet was resuspended and re-homogenized with a Glass-Teflon® Potter by 5 strokes. This homogenate was recentrifuged at 8,700×g for 10 min and the resulting supernatant was combined with the first collected supernatant. The combined supernatant was centrifuged at 35,000×g for 20 min. The pellet fraction obtained was resuspended in Buffer B (20 mM Tris-maleate, 0.6M KCl, pH 6.8) in a volume corresponding to 20 mL/g of fresh tissue using a glass homogenizer with a Teflon pestle. The resulting suspension was centrifuged again at 35,000×g for 60 min. and the pellet fraction obtained was resuspended in Buffer C (10 mM Tris/HCl buffer pH 7.4) and thoroughly homogenized in a glass with a Teflon® pestle (20 ml/g of fresh tissue). This suspension was submitted to another centrifugation at 35,000×g for 60 min. The collected pellet was resuspended in 50 mM Tris/HCl buffer pH 7.4) containing 2 mM EGTA in a final volume corresponding to 1-2 mL/g of fresh tissue. The membrane preparation obtained was frozen at −80° C. Protein concentration was determined using the bicinchoninic acid (BCA) method, employing BSA as standard.
The reaction was started by adding 3 nmol of H2O2 for 5 min at room temperature. This step was repeated twice with a period of 5 min of incubation for each addition. The reaction was stopped by diluting the mixture with 1 mL of 0.1% TFA. The radioiodinated peptide was purified by HPLC on a reverse-phase Vydac® C18 column with a 60-min linear gradient from 20% to 50% of acetonitrile in 0.1% TFA. The eluted radiolabelled tracer was collected, aliquoted (50×10^6 cpm/fraction) and stored at −80° C.
Binding studies with MPE-298 were done with increasing concentrations from 0.01 to 5 μM of competition ligands. Nonspecific binding was defined as binding not displaced by 50 μM corresponding peptide. All peptide containing solutions were diluted in Buffer B. Buffer A and B were degassed under vacuum, and used in capped tubes in order to minimize lipid peroxidation. Before the incubation period, all tubes were put under a low flow of nitrogen. All material was kept on ice and the binding assay was performed in darkness. After an incubation period of 60 min at 22° C. (vortexing every 15 min), membranes were submitted to irradiation with UV lamps (365 nm) for 15 min at 4° C. After centrifugation at 12,000×g for 15 minutes, the pellets were resuspended in 40 μl of sample buffer (62 mM Tris-HCl, pH 6.8, 2% SDS, 10% glycerol, 15% 2-mercaptoethanol, and 0.05% bromophenol blue), and boiled for 5 min prior to being subjected to electrophoresis. Proteins (50 μg/40 μl) were separated on a 7.5% SDS-PAGE Bio-Rad® Mini-Protean electrophoresis system (150 V for 1 h). The gels resulting from SDS/PAGE were fixed, colored in Coomassie Brilliant Blue R-250, dried, exposed to a storage phosphor intensifying screen (Amersham Biosciences), and analysed using a Typhoon® PhosphorImager (GE Healthcare Life Sciences®). […] The curves were analysed by using software package (Graphpad® prism version 7.0).

[2] = tested on: R-FSL-1 (TLR2 agonist)-induced TNF-α and CCL-2 release in RAW macrophages; test: R-FSL-1-induced TNF-α and CCL-2 release in RAW macrophages; format: cell-based, murine; conditions: 10^−7 M
Protocol: The murine RAW1 macrophage cell line was obtained from American Type Cell Collection (ATCC #TIB-71). RAW cells were seeded at 150,000 cells per well in a 48-well plate (Costar® #3548) and weaned overnight in medium (DMEM supplemented 1% penicillin/streptomycin) at 37° C. with 5% CO2. The next day, the medium was changed to DMEM-1% penicillin/streptomycin supplemented with 0.2% BSA. The cells were first pretreated with 300 μL of azapeptides DBG178 (MPE-133, reference standard), 25 (MPE-210), 26 (MPE-266), 28 (MPE-268), 32 (MPE-267), 33 (MPE-298), 38 (MPE-308), 35 (MPE-300), 39 (MPE-310) and azaLys6-GHRP-6 (as negative control) at 10^-7M for 30 min. Then, […] of the TLR2 agonist, R-FSL-1 (300 ng/ml final concentration, R-FSL-1, Invivogen® #L7022) was added for 4 h period of incubation at 37° C. with 5% CO2. At the end of the incubation period, media were collected and stored at −80° C. for TNF-α and CCL-2 assays using ELISA kits (EbioScience® #88-7391 and #88-7324). Results were analyzed by analysis of variance (ANOVA) with post hoc comparisons using Dunnett's test with a statistical software package (Graph Pad Prism® version 7.0). P<0.05 was considered statistically significant.

apoE−/− mice = test: Murine atherosclerosis model (apoE−/− mice on atherogenic diet), aortic lesions; format: in vivo; conditions: 300 nmol/kg daily s.c. for 8 weeks
Protocol: Experiments were performed in male apoE−/− mice fed an atherogenic diet (D12108, cholate-free AIN-76A semi-purified diet, Research Diets Inc., New Brunswick, NJ) from 4 weeks of age. MPE-298 (300 nmol/kg), MPE-267 (300 nmol/kg) or vehicle (0.9% NaCl), were administered by daily by subcutaneous (s.c.) injections for 8 weeks, from 12 weeks of age, as shown schematically in FIG. 8A.

[3] = tested on: R-FSL-1 (TLR2 agonist)-induced TNF-α and CCL-2 release in RAW macrophages; test: R-FSL-1-induced TNF-α and CCL-2 release in RAW macrophages; format: cell-based, murine; conditions: 10^−7 M; remark: listed apart in the source

| Structure (SMILES) | suppression of R-FSL-1-mediated NO production ([1]; at the concentration tested (10^−6 or 10^−7 M), FIGS. 4A to 4F) | IC50 (CD36) [µM] | effect on R-FSL-1-induced CCL-2 release [2] | effect on R-FSL-1-induced TNF-α release [2] | reduction of aortic lesions relative to 0.9% NaCl (vehicle) (apoE−/− mice) [%] | suppression of NO production compared with positive control MPE-001 at the same concentration [1] | suppression of R-FSL-1-mediated NO production at 10^−7 M [1] | R-FSL-1-mediated NO production, % of control [1] | inhibitory effect on R-FSL-1-induced CCL-2 release compared with reference standard DBG178 (MPE-001) [3] |
| --- | --- | --- | --- | --- | --- | --- | --- | --- | --- |
| C=CCN1CC#CCN(NC(=O)[C@H](C)N)C(=O)N[C@@H](C)C(=O)N[C@@H](Cc2c[nH]c3ccccc23)C(=O)N[C@H](Cc2ccccc2)C(=O)N[C@H](C(N)=O)CCCC1 [MPE-267] | significant suppression | 0.24 | significant inhibitory effect | significant inhibitory effect | 28 | – | – | – | – |
| C=CCN1CC#CCN(NC(=O)[C@H](C)NC(C)=O)C(=O)N[C@H](Cc2c[nH]c3ccccc23)C(=O)N[C@@H](C)C(=O)N[C@@H](Cc2c[nH]c3ccccc23)C(=O)N[C@H](Cc2ccccc2)C(=O)N[C@H](C(N)=O)CCCC1 [MPE-308] | – | 0.67 | significant inhibitory effect | significant inhibitory effect | – | more important | significant suppression | about 80 % of control | – |
| C=CCN1CC#CCN(NC(C)=O)C(=O)N[C@H](Cc2c[nH]c3ccccc23)C(=O)N[C@@H](C)C(=O)N[C@@H](Cc2c[nH]c3ccccc23)C(=O)N[C@H](Cc2ccccc2)C(=O)N[C@H](C(N)=O)CCCC1 [MPE-310] | – | 0.89 | significant inhibitory effect | significant inhibitory effect | – | more important | significant suppression | about 80 % of control | significantly higher |
